Experimental data published in patent US8604200B2, “Diaza-spiro-{4,4}-nonane derivatives as neurokinin (NK1) antagonists” (Janssen Pharmaceutica N.V., priority 2005, dated 2013).

How the values were obtained:
Assay type in all cases: cell-based
NK2 = target: T1, NK2 (Homo sapiens, UniProt P21452); assay: Signal transduction (ST), intracellular Ca++ FLIPR, NK2; details: antagonist response, Ca++ transient peak, read-out: NK2 pIC50 (converted)
T1 sequence (P21452 1-398): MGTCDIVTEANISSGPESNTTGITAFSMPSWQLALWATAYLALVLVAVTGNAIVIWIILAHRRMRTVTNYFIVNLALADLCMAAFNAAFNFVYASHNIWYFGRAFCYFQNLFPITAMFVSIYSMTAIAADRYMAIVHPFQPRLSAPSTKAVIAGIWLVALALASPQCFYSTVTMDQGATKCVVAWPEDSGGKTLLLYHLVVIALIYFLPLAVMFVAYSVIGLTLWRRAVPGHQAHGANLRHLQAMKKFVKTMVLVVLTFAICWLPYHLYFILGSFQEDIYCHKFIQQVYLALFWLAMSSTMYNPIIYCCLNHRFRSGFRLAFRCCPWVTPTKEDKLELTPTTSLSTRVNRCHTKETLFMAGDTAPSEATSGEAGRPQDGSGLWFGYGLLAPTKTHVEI

NK1 = NK1 (Homo sapiens, UniProt P25103); assay: Signal transduction (ST), intracellular Ca++ FLIPR, NK1; details: antagonist response, Ca++ transient peak, read-out: NK1 pIC50 (converted)
Description: This test evaluates in vitro functional NK1 antagonistic activity. For the measurements of intracellular Ca^++ concentrations the cells were grown on 96-well (black wall/transparent bottom) plates from Costar for 2 days until they reached confluence. The cells were loaded with 2 μM Fluo3 in DMEM containing 0.1% BSA and 2.5 mM probenecid for 1 h at 37° C. They were washed 3× with a Krebs buffer (140 mM NaCl, 1 mM MgCl2×6H2O, 5 mM KCl, 10 mM glucose, 5 mM HEPES; 1.25 mM CaCl2; pH 7.4) containing 2.5 mM probenecid and 0.1% BSA (Ca^++-buffer). The cells were preincubated with a concentration range of antagonists for 20 min at RT and Ca^++-signals after addition of the agonists were measured in a Fluorescence Inage Plate Reader (FLIPR from Molecular Devices, Crawley, England). The peak of the Ca^++-transient was considered as the relevant signal and the mean values of corresponding wells were analysed as described below. The sigmoidal dose response curves were analysed by computerised curve-fitting, using the GraphPad Program. The EC50-value of a compound is the effective dose showing 50% of maximal effect. For mean curves the response to the agonist with the highest potency was normalised to 100%. For antagonist responses the IC50-value was calculated using non-linear regression. The last column indicates—without being limited thereto—for which use the compounds might be most suitable.

NK3 = target: T2, NK3 (Homo sapiens, UniProt P29371); assay: Signal transduction (ST), intracellular Ca++ FLIPR, NK3; details: antagonist response, Ca++ transient peak, read-out: NK3 pIC50 (converted)
T2 sequence (P29371 1-465): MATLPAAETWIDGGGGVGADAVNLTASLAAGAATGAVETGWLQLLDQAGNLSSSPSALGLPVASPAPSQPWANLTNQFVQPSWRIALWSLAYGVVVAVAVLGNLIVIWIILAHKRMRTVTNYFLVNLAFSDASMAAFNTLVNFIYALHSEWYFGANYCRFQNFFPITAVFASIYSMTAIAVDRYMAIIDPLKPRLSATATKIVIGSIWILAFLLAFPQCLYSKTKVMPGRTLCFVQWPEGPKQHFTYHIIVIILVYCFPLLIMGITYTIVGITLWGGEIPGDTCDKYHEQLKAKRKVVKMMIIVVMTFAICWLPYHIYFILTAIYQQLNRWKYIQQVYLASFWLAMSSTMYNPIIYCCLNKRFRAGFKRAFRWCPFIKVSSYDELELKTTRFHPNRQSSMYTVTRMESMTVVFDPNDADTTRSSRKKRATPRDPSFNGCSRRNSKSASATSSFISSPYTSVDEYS

Chain of NK1 (P25103 whole entry): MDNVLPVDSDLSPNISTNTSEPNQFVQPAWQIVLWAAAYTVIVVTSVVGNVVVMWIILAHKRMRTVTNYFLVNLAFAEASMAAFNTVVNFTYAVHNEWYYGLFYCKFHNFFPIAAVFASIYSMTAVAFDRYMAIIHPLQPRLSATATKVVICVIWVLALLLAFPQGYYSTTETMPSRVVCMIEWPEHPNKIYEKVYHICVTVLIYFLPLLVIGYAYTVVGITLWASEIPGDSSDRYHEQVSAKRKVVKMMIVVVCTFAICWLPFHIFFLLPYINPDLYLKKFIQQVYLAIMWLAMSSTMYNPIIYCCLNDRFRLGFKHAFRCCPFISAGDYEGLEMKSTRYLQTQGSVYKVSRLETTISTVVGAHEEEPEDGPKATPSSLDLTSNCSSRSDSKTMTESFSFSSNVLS

Row | SMILES | IC50 (NK2) [nM] | IC50 (NK1) [nM] | IC50 (NK3) [nM]
1 | O=C(c1cc(C(F)(F)F)cc(C(F)(F)F)c1)N1CC[C@@H](N2CCC3(CCCN3C(=O)c3ccoc3)C2)C[C@H]1Cc1ccccc1 (stereo partly drawn) [Compound 1-8] | 6310 | 100 | > 10000
2 | O=C(c1cc(C(F)(F)F)cc(C(F)(F)F)c1)N1CCC(N2CCC3(CCCN3Cc3ccccc3)C2)CC1Cc1ccccc1 (stereo not drawn) [Compound 1-2] | > 10000 | 631 | > 10000
3 | O=C(c1cc(C(F)(F)F)cc(C(F)(F)F)c1)N1CCC(N2CCC3(CCCN3C(=O)C3CCOC3)C2)CC1Cc1ccccc1 (single isomer, unassigned) [Compound 1-6] | 1580 | 63.1 | > 10000
4 | O=C(c1cc(C(F)(F)F)cc(C(F)(F)F)c1)N1CCC(N2CCC3(CCCN3C(=O)C3CC3)C2)CC1Cc1ccccc1 (stereo not drawn) [Compound 1-3] | 3980 | 251 | > 10000
5 | O=C(c1cc(C(F)(F)F)cc(C(F)(F)F)c1)N1CC[C@@H](N2CCC3(CCCN3C(=O)c3cccs3)C2)C[C@H]1Cc1ccccc1 (stereo partly drawn) [Compound 1-9] | 6310 | 50.1 | > 10000
6 | O=C(c1cc(C(F)(F)F)cc(C(F)(F)F)c1)N1CC[C@@H](N2CCC3(CCCN3C(=O)c3cnccn3)C2)C[C@H]1Cc1ccccc1 (stereo partly drawn) [Compound 1-12] | 3980 | 200 | > 10000
7 | O=C(c1cc(C(F)(F)F)cc(C(F)(F)F)c1)N1CC[C@H](N2CCC3(CCCN3C(=O)c3ccoc3)C2)C[C@H]1Cc1ccccc1 (stereo partly drawn) [Compound 1-7] | 3160 | 100 | > 10000
8 | O=C(c1cc(C(F)(F)F)cc(C(F)(F)F)c1)N1CCC(N2CCC3(CCCN3C(=O)C3CCOC3)C2)CC1Cc1ccccc1 (single isomer, unassigned) [Compound 1-5] | 6310 | 50.1 | –
9 | O=C(c1cc(C(F)(F)F)cc(C(F)(F)F)c1)N1CC[C@H](N2CCC3(CCCN3C(=O)c3ccccc3)C2)C[C@H]1Cc1ccccc1 (stereo partly drawn) [Compound 1-10] | 5010 | 200 | > 10000
10 | O=C(c1cc(C(F)(F)F)cc(C(F)(F)F)c1)N1CC[C@@H](N2CCC3(CCCN3C(=O)c3ccccc3)C2)C[C@H]1Cc1ccccc1 (stereo partly drawn) [Compound 1-11] | – | 158 | > 10000

The remaining lines, values ahead:

Row | IC50 (NK2) [nM] | IC50 (NK1) [nM] | IC50 (NK3) [nM] | SMILES
11 | 3160 | 63.1 | 6310 | CC(C)(C)C(=O)N1CCC2(CCN([C@H]3CCN(C(=O)c4cc(C(F)(F)F)cc(C(F)(F)F)c4)[C@H](Cc4ccccc4)C3)C2)C1 (stereo partly drawn) [Compound 2-3]
12 | 2510 | 39.8 | 2000 | O=C(C1CCOC1)N1CCC2(CCN([C@H]3CCN(C(=O)c4cc(C(F)(F)F)cc(C(F)(F)F)c4)[C@H](Cc4ccccc4)C3)C2)C1 (stereo partly drawn) [Compound 2-5]
13 | 5010 | 126 | 3980 | O=C(c1ccccc1)N1CCC2(CCN([C@H]3CCN(C(=O)c4cc(C(F)(F)F)cc(C(F)(F)F)c4)[C@H](Cc4ccccc4)C3)C2)C1 (stereo partly drawn) [Compound 2-9]
14 | 2510 | 100 | – | O=C(C1CC1)N1CCC2(CCN(C3CCN(C(=O)c4cc(C(F)(F)F)cc(C(F)(F)F)c4)C(Cc4ccccc4)C3)C2)C1 (stereo not drawn) [Compound 2-4]
15 | 6310 | 100 | 3980 | Cc1nnsc1C(=O)N1CCC2(CCN([C@H]3CCN(C(=O)c4cc(C(F)(F)F)cc(C(F)(F)F)c4)[C@H](Cc4ccccc4)C3)C2)C1 (stereo partly drawn) [Compound 2-8]
16 | 6310 | 158 | 2510 | O=C(c1cccs1)N1CCC2(CCN([C@H]3CCN(C(=O)c4cc(C(F)(F)F)cc(C(F)(F)F)c4)[C@H](Cc4ccccc4)C3)C2)C1 (stereo partly drawn) [Compound 2-7]
17 | 5010 | 251 | > 10000 | O=C(c1cnccn1)N1CCC2(CCN([C@H]3CCN(C(=O)c4cc(C(F)(F)F)cc(C(F)(F)F)c4)[C@H](Cc4ccccc4)C3)C2)C1 (stereo partly drawn) [Compound 2-10]
18 | 5010 | 50.1 | 3160 | O=C(c1ccoc1)N1CCC2(CCN([C@H]3CCN(C(=O)c4cc(C(F)(F)F)cc(C(F)(F)F)c4)[C@H](Cc4ccccc4)C3)C2)C1 (stereo partly drawn) [Compound 2-6]
